According to ChEMBL document CHEMBL1201862, “PubChem BioAssay data set” (2004):
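The compound was tested at five concentrations on cells cultured in 96-well plates, with a 48-hour exposure period. Here, GI50 denotes the concentration required for 50% inhibition of growth.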 Activity calls are given as the source filed them. No stated cut-off is given here; in the data, active = GI50 up to about 1.1 µM and inactive = higher.

What was measured:
Experiment in all cases: NCI tumour cell line growth inhibition, 48 h
[1] = system: SK-OV-3
[2] = system: HOP-62
[3] = system: MCF7
[4] = system: SK-MEL-28
[5] = system: HCT-116
[6] = system: A549
[7] = system: RXF 393
[8] = system: T47D
[9] = system: BT-549
[10] = system: NCI-H23
[11] = system: UACC-62
[12] = system: SN12C
[13] = system: Malme-3M
[14] = system: PC-3
[15] = system: IGROV-1
[16] = system: EKVX
[17] = system: NCI-H226
[18] = system: UACC-257
[19] = system: DU-145
[20] = system: OVCAR-8

Row | Structure (SMILES) | GI50 [1] | GI50 [2] | GI50 [3] | GI50 [4] | GI50 [5] | GI50 [6] | GI50 [7] | GI50 [8] | GI50 [9] | GI50 [10] | GI50 [11] | GI50 [12] | GI50 [13] | GI50 [14] | GI50 [15] | GI50 [16] | GI50 [17] | GI50 [18] | GI50 [19] | GI50 [20]
1 | N=C(N)CCNC(=O)C1CCC(N)=N1 (stereo not given) | 9.59 µM (inactive) | 4.38 µM (inactive) | 16.2 µM (inactive) | 19.2 µM (inactive) | 13.1 µM (inactive) | 6.49 µM (inactive) | 35.1 µM (inactive) | 6.5 µM (inactive) | 43.4 µM (inactive) | 16.1 µM (inactive) | 14 µM (inactive) | 5.27 µM (inactive) | 7.5 µM (inactive) | 6 µM (inactive) | 8.49 µM (inactive) | 9.12 µM (inactive) | 18.1 µM (inactive) | 13.7 µM (inactive) | 4.98 µM (inactive) | 7.28 µM (inactive)
2 | CCOC(=O)c1cccc(NC(=O)CCl)c1 | 4.92 µM (inactive) | 2.44 µM (inactive) | 2.26 µM (inactive) | 16.7 µM (inactive) | 2.8 µM (inactive) | 10.4 µM (inactive) | 3 µM (inactive) | 2.48 µM (inactive) | 4.45 µM (inactive) | 3.22 µM (inactive) | 1.52 µM (inactive) | 2.01 µM (inactive) | 6.22 µM (inactive) | 6.1 µM (inactive) | 2.48 µM (inactive) | 3.18 µM (inactive) | 6.55 µM (inactive) | 5.09 µM (inactive) | 9.44 µM (inactive) | 3.55 µM (inactive)
3 | CC(=O)Oc1ccc(/C=C/C(=O)OCCOC(=O)/C=C/c2ccc(OC(C)=O)c(OC(C)=O)c2)cc1OC(C)=O | 13.9 µM (inactive) | 1.26 µM (inactive) | 9.64 µM (inactive) | 14.4 µM (inactive) | 4.66 µM (inactive) | 16.1 µM (inactive) | 7.76 µM (inactive) | 13 µM (inactive) | 15.7 µM (inactive) | 4.26 µM (inactive) | 5 µM (inactive) | 11.7 µM (inactive) | 12.4 µM (inactive) | 12.1 µM (inactive) | 2.95 µM (inactive) | 14.8 µM (inactive) | 14.9 µM (inactive) | 10.5 µM (inactive) | 9.06 µM (inactive) | 4.8 µM (inactive)
4 | CC(=O)O[C@H]1/C(=C/c2ccncc2)C[C@H]2[C@@H]3CC=C4C[C@@H](N5CCCC5)CC[C@]4(C)[C@H]3CC[C@]12C | 17.9 µM (inactive) | 14.2 µM (inactive) | 12.1 µM (inactive) | 12.7 µM (inactive) | 3.41 µM (inactive) | 11.8 µM (inactive) | 6.9 µM (inactive) | 13.4 µM (inactive) | 20.5 µM (inactive) | 15.1 µM (inactive) | 14.2 µM (inactive) | 17 µM (inactive) | 13 µM (inactive) | 11.7 µM (inactive) | 12.6 µM (inactive) | 13.9 µM (inactive) | 19.3 µM (inactive) | 2.34 µM (inactive) | 14.6 µM (inactive) | 14 µM (inactive)
5 | O=C1C(=C(C(=O)c2ccccc2)C(=O)c2ccccc2)OC(c2ccccc2)=C1C(=O)c1ccccc1 | 6.93 µM (inactive) | 3.03 µM (inactive) | 1.85 µM (inactive) | 13.9 µM (inactive) | 4.44 µM (inactive) | 9.04 µM (inactive) | 0.122 µM (active) | 12 µM (inactive) | 3.01 µM (inactive) | 6.1 µM (inactive) | 4.33 µM (inactive) | 3.29 µM (inactive) | 12.6 µM (inactive) | 13.2 µM (inactive) | 0.164 µM (active) | 8.28 µM (inactive) | 3.74 µM (inactive) | 17.1 µM (inactive) | 9.06 µM (inactive) | 4.15 µM (inactive)
6 | CCOC(=O)CNc1c(OCc2ccccc2)c(=O)c1=O | > 100 µM (inactive) | > 100 µM (inactive) | > 100 µM (inactive) | > 100 µM (inactive) | > 100 µM (inactive) | > 100 µM (inactive) | > 100 µM (inactive) | > 100 µM (inactive) | > 100 µM (inactive) | > 100 µM (inactive) | > 100 µM (inactive) | > 100 µM (inactive) | > 100 µM (inactive) | > 100 µM (inactive) | > 100 µM (inactive) | > 100 µM (inactive) | > 100 µM (inactive) | > 100 µM (inactive) | > 100 µM (inactive) | > 100 µM (inactive)
7 | O=c1c(NO)c([N+](=O)[O-])cnn1-c1ccccc1 | 7.01 µM (inactive) | 8.83 µM (inactive) | 2.55 µM (inactive) | 3.43 µM (inactive) | 2.62 µM (inactive) | 18.5 µM (inactive) | 5.92 µM (inactive) | 1.83 µM (inactive) | 1.58 µM (inactive) | 6.55 µM (inactive) | 4.2 µM (inactive) | 3.08 µM (inactive) | 4.6 µM (inactive) | 1.55 µM (inactive) | 21.1 µM (inactive) | 11.6 µM (inactive) | 7.87 µM (inactive) | 6.37 µM (inactive) | 13.8 µM (inactive) | 2.63 µM (inactive)
